Where two headings read alike, the source gives them in different places.
How the values were obtained:
A-549 = experiment: Inhibition of cell growth by counting cells, A-549; assay type: cell-based, human; conditions: read-out: IC50 (molar) A-549
Procedure, shortened: (§1)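 Growth inhibition by direct cell counting: exponentially growing cells treated 3 days with compound at 37° C; IC50 derived from dose-response of net cells per well.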

HT-29 = experiment: Inhibition of cell growth by counting cells, HT-29; assay type: cell-based, human; conditions: read-out: IC50 (molar) HT-29
Procedure, shortened: as §1

P-388 = experiment: Inhibition of cell growth by counting cells, P-388; assay type: cell-based, mouse; conditions: read-out: IC50 (molar) P-388
Protocol: (§2) 1°.—Inhibition of Cell Growth by Counting Cells.
(§3) This form of the assay employs 24 well multidishes of 16 mm diameter (Bergeron, 1984; Schroeder, 1981). The tumor cell lines employed are: P-388 (ATCC CCL 46), suspension culture of a lymphoid neoplasm from a DBA/2 mouse; A-549 (ATCC CCL 185), monolayer culture of a human lung carcinoma; HT-29 (ATCC HTB-38), monolayer culture of a human colon carcinoma; MEL-28 (ATCC HTB-72), monolayer culture of a human melanoma and DU-145 (ATCC HTB-81), monolayer culture of a human prostate carcinoma.
(§4) Cells were maintained, in logarithmic phase of growth in Eagle's Minimum Essential Medium, with Earle's Balanced Salts, with non-essential amino acids, with 2.0 mM L-Glutamine, without sodium bicarbonate (EMEM/neaa), supplemented with 10% Fetal Calf Serum (FCS), 10^−2 M. sodium bicarbonate and 0.1 U/l penicillin G+0.1 g/l streptomycin sulfate. For the experiments, cells are harvested from subconfluent cultures using trypsin and resuspended in fresh medium before plating.
(§5) P-388 cells were seeded into 16 mm diameter wells at 1×10^4 cells per well in 1 ml aliquots of EMEM 5% FCS containing different concentrations of the sample to be tested. A separate set of cultures without drug was seeded as control of growth, to ensure that cells remained in exponential phase of growth. All determinations are carrying out in duplicate.
(§6) For quantifying the activity, after the incubation time, cells are trypsinized and counted in a Coulter Counter ZM. All counts (net cells per well), represent the average of duplicate wells. % G, percent of growth relative to cultures without drug. The results of these assays are used to generate dose-response curves from which more precise IC50 values are determined (sample concentration which produces 50% cell growth inhibition).
(§7) Obtained results may predict the usefulness of a certain drug as a potential cancer treatment. For this technique, compounds which show IC50 values smaller than 1 μg/ml are selected to continue with further studies. IC50's data allow to predict that not only could a drug be cystostatic, but also it could have a potential in terms of tumor reduction.

MEL-28 = experiment: Inhibition of cell growth by counting cells, MEL-28; assay type: cell-based, human; conditions: read-out: IC50 (molar) MEL-28
Protocol: as §2, §3, §4
as §5, with “A-549, HT-29, MEL-28 and DU-145” for “P-388”, “duplicate. After three days of incubation at 37° C., 5% CO2 in a 98% humid atmosphere cells were stained with 0.1% crystal violet. An approximately IC50 was determined by comparing the growth in wells with drug to the growth in wells control.” for “duplicate.”
as §6, §7

DU-145 = experiment: Inhibition of cell growth by counting cells, DU-145; assay type: cell-based, human; conditions: read-out: IC50 (molar) DU-145
Protocol: as §2, §3, §4
as §5, with “A-549, HT-29, MEL-28 and DU-145” for “P-388”, “duplicate. After three days of incubation at 37° C., 5% CO2 in a 98% humid atmosphere cells were stained with 0.1% crystal violet. An approximately IC50 was determined by comparing the growth in wells with drug to the growth in wells control.” for “duplicate.”
as §6, §7

[1] = Homo sapiens, A549, 72 h, three days of incubation
[2] = Homo sapiens, HT-29, 72 h, three days of incubation
[3] = Mus musculus, P388, 72 h, three days of incubation
[4] = Homo sapiens, SK-MEL-28, 72 h, three days of incubation
[5] = Homo sapiens, DU-145, 72 h, three days of incubation

Row | SMILES | IC50 (A-549; [1]) | IC50 (HT-29; [2]) | IC50 (P-388; [3]) | IC50 (MEL-28; [4]) | IC50 (DU-145; [5]) | also measured
1 | CCCCCCCC(=O)Oc1cc2c(cc1OC)[C@@]1(CS[C@@H]3c4c(OC(C)=O)c(C)c5c(c4[C@H](COC1=O)N1C3[C@H]3c4c(cc(C)c(OC)c4O)C[C@@H]([C@@H]1C#N)N3C)OCO5)NCC2 (stereo partly shown) [Compound 14] | – | – | – | – | – | IC50 (A-549; three days of incubation): 1.11 nM; IC50 (HT-29; three days of incubation): 1.11 nM; IC50 (P-388; three days of incubation): 1.11 nM; IC50 (MEL-28; three days of incubation): 1.11 nM; IC50 (DU-145; three days of incubation): 1.11 nM
2 | CCCC(=O)Oc1cc2c(cc1OC)[C@@]1(CS[C@@H]3c4c(OC(C)=O)c(C)c5c(c4[C@H](COC1=O)N1C3[C@H]3c4c(cc(C)c(OC)c4OC(=O)CCC)C[C@@H]([C@@H]1C#N)N3C)OCO5)NCC2 (stereo partly shown) [Compound 9] | 0.11 nM | 0.11 nM | 0.11 nM | 0.11 nM | 0.11 nM | –
3 | CCCC(=O)Oc1cc2c(cc1OC)[C@@]1(CS[C@@H]3c4c(OC(C)=O)c(C)c5c(c4[C@H](COC1=O)N1C3[C@@H]3N[C@@H](Cc4cc(C)c(OC)c(O)c43)[C@@H]1C#N)OCO5)NCC2 (stereo partly shown) [Compound 203] | 0.121 nM | 0.121 nM | 0.121 nM | 0.121 nM | 0.121 nM | –
4 | C=CCOc1cc2c(cc1OC)[C@@]1(CS[C@@H]3c4c(OC(C)=O)c(C)c5c(c4[C@H](COC1=O)N1C3[C@H]3c4c(cc(C)c(OC)c4O)C[C@@H]([C@@H]1C#N)N3C)OCO5)NCC2 (stereo partly shown) [Compound 41] | 1.23 nM | 1.23 nM | 1.23 nM | 1.23 nM | – | IC50 (DU-145; Homo sapiens, DU-145, 72 h): 1.23 nM
5 | COc1cc2c(cc1OC(C)=O)CCN[C@]21CS[C@@H]2c3c(OC(C)=O)c(C)c4c(c3[C@H](COC1=O)N1C2[C@@H]2N[C@@H](Cc3cc(C)c(OC)c(O)c32)[C@@H]1C#N)OCO4 (stereo partly shown) [Compound 202] | 0.125 nM | 0.125 nM | 0.125 nM | 0.0625 nM | 0.0625 nM | –
6 | C=CCOc1cc2c(cc1OC)[C@@]1(CS[C@@H]3c4c(O)c(C)c5c(c4[C@H](COC1=O)N1C3[C@H]3c4c(cc(C)c(OC)c4OCC=C)C[C@@H]([C@@H]1C#N)N3C)OCO5)NCC2 (stereo partly shown) [Compound 50] | 124 nM | 124 nM | 124 nM | 124 nM | 124 nM | –
7 | COc1cc2c(cc1OC(=O)OC(C)(C)C)CCN[C@]21CS[C@@H]2c3c(OCc4ccccc4)c(C)c4c(c3[C@H](COC1=O)N1C2[C@H]2c3c(cc(C)c(OC)c3OCc3ccccc3)C[C@@H]([C@@H]1C#N)N2C)OCO4 (stereo partly shown) [Compound 135] | – | – | – | – | – | IC50 (A-549; Homo sapiens, A549, 72 h): 4.96 nM; IC50 (HT-29; Homo sapiens, HT-29, 72 h): 4.96 nM; IC50 (P-388; Mus musculus, P388, 72 h): 4.96 nM; IC50 (MEL-28; Homo sapiens, SK-MEL-28, 72 h): 4.96 nM; IC50 (DU-145; Homo sapiens, DU-145, 72 h): 4.96 nM
8 | COc1cc2c(cc1OC(=O)/C=C/c1ccccc1)CCN[C@]21CS[C@@H]2c3c(OC(C)=O)c(C)c4c(c3[C@H](COC1=O)N1C2[C@@H]2N[C@@H](Cc3cc(C)c(OC)c(O)c32)[C@@H]1C#N)OCO4 (stereo partly shown) [Compound 204] | 0.113 nM | 0.113 nM | 0.113 nM | 0.113 nM | 0.113 nM | –
9 | CCCCCCCCCCCCCCCC(=O)Oc1cc2c(cc1OC)[C@@]1(CS[C@@H]3c4c(OC(C)=O)c(C)c5c(c4[C@H](COC1=O)N1C3[C@@H]3N[C@@H](Cc4cc(C)c(OC)c(O)c43)[C@@H]1C#N)OCO5)NCC2 (stereo partly shown) [Compound 207] | 5.03 nM | 5.03 nM | 5.03 nM | 5.03 nM | 5.03 nM | –
10 | COc1cc2c(cc1O)CCN[C@]21CS[C@@H]2c3c(OC(=O)/C=C/c4ccccc4)c(C)c4c(c3[C@H](COC1=O)N1C2[C@H]2c3c(cc(C)c(OC)c3O)C[C@@H]([C@@H]1C#N)N2C)OCO4 (stereo partly shown) [Compound 137] | 0.117 nM | 0.117 nM | 0.117 nM | 0.117 nM | 0.117 nM | –
11 | COc1cc2c(cc1OC(=O)OC(C)(C)C)CCN[C@]21CS[C@@H]2c3c(O)c(C)c4c(c3[C@H](COC1=O)N1C2[C@H]2c3c(cc(C)c(OC)c3O)C[C@@H]([C@@H]1C#N)N2C)OCO4 (stereo partly shown) [Compound 106] | 1.21 nM | 1.21 nM | 1.21 nM | 1.21 nM | 1.21 nM | –
12 | COc1cc2c(cc1OC(=O)OC(C)(C)C)CCN[C@]21CS[C@@H]2c3c(OC(C)=O)c(C)c4c(c3[C@H](COC1=O)N1C2[C@H]2c3c(cc(C)c(OC)c3O)C[C@@H]([C@@H]1C#N)N2C)OCO4 (stereo partly shown) [Compound 4] | 0.115 nM | 0.115 nM | 0.115 nM | 0.115 nM | 0.115 nM | –
13 | COc1cc2c(cc1OC(=O)C(F)(F)F)CCN[C@]21CS[C@@H]2c3c(OC(C)=O)c(C)c4c(c3[C@H](COC1=O)N1C2[C@H]2c3c(cc(C)c(OC)c3O)C[C@@H]([C@@H]1C#N)N2C)OCO4 (stereo partly shown) [Compound 3] | 1.15 nM | 1.15 nM | 1.15 nM | 1.15 nM | 1.15 nM | –
14 | COc1cc2c(cc1OC(=O)CCCCC1SCC3NC(=O)NC31)CCNC21CSC2c3c(OC(C)=O)c(C)c4c(c3C(COC1=O)N1C(C#N)C3Cc5cc(C)c(OC)c(O)c5C(C21)N3C)OCO4 (stereo not shown) [Compound 19] | – | – | – | – | – | IC50 (A-549; three days of incubation): 0.502 nM; IC50 (HT-29; three days of incubation): 0.502 nM; IC50 (P-388; three days of incubation): 0.502 nM; IC50 (MEL-28; three days of incubation): 0.502 nM; IC50 (DU-145; three days of incubation): 0.502 nM
15 | CCCC(=O)Oc1cc2c(cc1OC)[C@@]1(CS[C@@H]3c4c(OC(C)=O)c(C)c5c(c4[C@H](COC1=O)N1C3[C@H]3c4c(cc(C)c(OC)c4O)C[C@@H]([C@@H]1O)N3C)OCO5)NCC2 (stereo partly shown) [Compound 58] | 0.12 nM | 0.12 nM | 0.12 nM | 0.12 nM | 0.12 nM | –
16 | CCCCCCCC(=O)Oc1cc2c(cc1OC)[C@@]1(CS[C@@H]3c4c(OC(C)=O)c(C)c5c(c4[C@H](COC1=O)N1C3[C@@H]3N[C@@H](Cc4cc(C)c(OC)c(OC(=O)CCCCCCC)c43)[C@@H]1C#N)OCO5)NCC2 (stereo partly shown) [Compound 206] | 49.6 nM | 49.6 nM | 49.6 nM | 49.6 nM | 49.6 nM | –
17 | CCCOc1cc2c(cc1OC)[C@@]1(CS[C@@H]3c4c(OC(C)=O)c(C)c5c(c4[C@H](COC1=O)N1C3[C@H]3c4c(cc(C)c(OC)c4O)C[C@@H]([C@@H]1O)N3C)OCO5)NCC2 (stereo partly shown) [Compound 69] | 0.623 nM | 0.623 nM | 0.125 nM | 0.623 nM | 0.623 nM | –
18 | COc1cc2c(cc1O)CCN[C@]21CS[C@@H]2c3c(O)c(C)c4c(c3[C@H](COC1=O)N1C2[C@H]2c3c(cc(C)c(OC)c3O)C[C@@H]([C@@H]1C#N)N2C)OCO4 (stereo partly shown) [Compound 136] | 0.137 nM | 0.137 nM | 0.137 nM | 0.137 nM | 0.137 nM | –
19 | CCCCCCCCCCCCCCCC(=O)Oc1cc2c(cc1OC)[C@@]1(CS[C@@H]3c4c(OC(C)=O)c(C)c5c(c4[C@H](COC1=O)N1C3[C@H]3c4c(cc(C)c(OC)c4O)C[C@@H]([C@@H]1C#N)N3C(=O)OC(C)(C)C)OCO5)NCC2 (stereo partly shown) [Compound 197] | 9130 nM | 9130 nM | 9130 nM | 9130 nM | 9130 nM | –
20 | COc1cc2c(cc1OCc1ccccc1)CCN[C@]21CS[C@@H]2c3c(OC(C)=O)c(C)c4c(c3[C@H](COC1=O)N1C2[C@H]2c3c(cc(C)c(OC)c3O)C[C@@H]([C@@H]1C#N)N2C)OCO4 (stereo partly shown) [Compound 43] | – | – | – | – | – | IC50 (A-549; Homo sapiens, A549, 72 h): 1.16 nM; IC50 (HT-29; Homo sapiens, HT-29, 72 h): 1.16 nM; IC50 (P-388; Mus musculus, P388, 72 h): 1.16 nM; IC50 (MEL-28; Homo sapiens, SK-MEL-28, 72 h): 1.16 nM; IC50 (DU-145; Homo sapiens, DU-145, 72 h): 1.16 nM

Reference: patent US7759345B2, “Antitumoral derivatives of ET-743” (priority 2001, dated 2010)
